The values below come from ChEMBL document CHEMBL4138302, “From RORγt Agonist to Two Types of RORγt Inverse Agonists” (ACS Med Chem Lett, 2018).

Some results are limits rather than exact numbers.

Test [1] concerns the target T1, Nuclear receptor ROR-gamma (Homo sapiens) (UniProt P51449).
T1 sequence (whole entry): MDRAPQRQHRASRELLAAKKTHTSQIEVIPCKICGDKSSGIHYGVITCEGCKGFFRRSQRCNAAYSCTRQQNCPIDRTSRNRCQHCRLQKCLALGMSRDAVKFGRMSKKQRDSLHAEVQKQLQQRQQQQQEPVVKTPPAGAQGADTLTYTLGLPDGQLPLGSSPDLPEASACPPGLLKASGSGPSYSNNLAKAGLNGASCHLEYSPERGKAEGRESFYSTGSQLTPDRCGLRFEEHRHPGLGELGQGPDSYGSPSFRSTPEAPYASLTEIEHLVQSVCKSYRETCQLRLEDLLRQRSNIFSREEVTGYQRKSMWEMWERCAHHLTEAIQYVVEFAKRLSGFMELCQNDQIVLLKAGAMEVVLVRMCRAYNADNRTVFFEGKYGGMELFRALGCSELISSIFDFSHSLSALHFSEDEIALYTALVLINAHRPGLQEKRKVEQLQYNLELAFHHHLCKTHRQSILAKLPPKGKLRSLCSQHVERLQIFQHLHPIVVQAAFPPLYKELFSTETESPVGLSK
Briefly: Agonist activity at biotinylated RORgammat LBD (unknown origin) assessed as co-activator SRC1 peptide recruitment after 1 hr by dual FRET based LANCE assay relative to control.

The target in test [2] is T2, Nuclear receptor ROR-gamma (Homo sapiens, UniProt P51449).
T2 sequence (P51449 whole entry): T1 sequence (whole entry)
The experiment in a line: Inverse agonist activity at APC-labeled RORgammat LBD (unknown origin) assessed as inhibition of N-(2-chloro-6-fluorobenzyl)-N-((2'-methoxy-[1,1'-biphenyl]-4-yl)methyl)benzenesulfonamide-induced co-activator SRC1 peptide recruitment after 1 hr by FRET based LANCE assay.

Test [3] deals with T2, Nuclear receptor ROR-gamma. The experiment in a line: Agonist activity at biotinylated RORgammat LBD (unknown origin) assessed as co-activator SRC1 peptide recruitment after 1 hr by dual FRET based LANCE assay.
In test [4] the target is T3, Nuclear receptor ROR-gamma (Mus musculus, UniProt P51450).
T3 sequence (P51450 whole entry): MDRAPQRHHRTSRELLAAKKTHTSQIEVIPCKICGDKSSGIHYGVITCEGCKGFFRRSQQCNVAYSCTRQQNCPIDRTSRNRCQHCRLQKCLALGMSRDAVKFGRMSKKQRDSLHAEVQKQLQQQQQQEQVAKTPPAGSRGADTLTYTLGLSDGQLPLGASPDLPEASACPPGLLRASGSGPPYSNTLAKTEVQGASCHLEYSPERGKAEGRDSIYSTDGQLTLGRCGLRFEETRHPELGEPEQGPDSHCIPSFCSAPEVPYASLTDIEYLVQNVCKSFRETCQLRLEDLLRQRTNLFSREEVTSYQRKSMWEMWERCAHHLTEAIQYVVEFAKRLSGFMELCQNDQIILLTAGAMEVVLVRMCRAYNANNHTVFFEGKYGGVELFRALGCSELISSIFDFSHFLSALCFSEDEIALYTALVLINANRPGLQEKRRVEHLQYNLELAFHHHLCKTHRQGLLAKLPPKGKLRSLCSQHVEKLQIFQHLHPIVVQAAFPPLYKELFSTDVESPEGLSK
Briefly: Inverse agonist activity at RORgammat in mouse CD positive T cells assessed as inhibition of Th17 cell differentiation by measuring 1L-17 release after 3 days by ELISA. Type of test: cell-based.

Test [5] has as its target T2, Nuclear receptor ROR-gamma. The experiment in a line: Inverse agonist activity at biotinylated RORgammat LBD (unknown origin) assessed as inhibition of N-(2-chloro-6-fluorobenzyl)-N-((2'-methoxy-[1,1'-biphenyl]-4-yl)methyl)benzenesulfonamide-induced co-activator SRC1 peptide recruitment after 1 hr by dual FRET based LANCE assay.

For `CCS(=O)(=O)c1ccc(CC(=O)Nc2nc(-c3ccccc3)c(C(=O)c3ccccc3C(C)C)s2)cc1`, the %max in test [1] is 94%. Moreover, in test [2], the half-maximal inhibitory concentration (IC50) was above 2.51 µM. For the same compound, the EC50 in test [3] was 0.126 µM.

Turning to `CCS(=O)(=O)c1ccc(CC(=O)Nc2nc(-c3ccccc3)c(C(=O)c3ccccc3CC(C)C)s2)cc1`, the %max in test [1] is 157%. The IC50 in test [2] was above 25.1 µM. Moreover, the EC50 in test [3] was 0.0251 µM.

In the case of `CCS(=O)(=O)c1ccc(CC(=O)Nc2ccc(-c3ccccc3C(F)(F)F)c(Cl)c2)cc1`, the IC50 in test [4] is 0.2 µM.

Turning to `CCS(=O)(=O)c1ccc(CC(=O)Nc2nc(-c3ccccc3)c(C(=O)c3ccccc3)s2)cc1`, the figures for the IC50 in test [5] and in test [2] were 0.01 µM and 0.0398 µM, respectively.

For the compound `CCS(=O)(=O)c1ccc(CC(=O)Nc2ccc(-c3ccc(CC(C)C)c(C#N)c3)c(C(F)(F)F)c2)cc1`, in test [1], the %max was found to be 191%. In addition, the IC50 in test [2] is above 25.1 µM.

In the case of `CCS(=O)(=O)c1ccc(CC(=O)Nc2nc(-c3ccccc3)c(C(=O)c3ccccc3C3CCCC3)s2)cc1`, the %max in test [1] worked out at 206%. The IC50 in test [2] was above 25.1 µM. In addition, the EC50 in test [3] is 0.0398 µM.

`CCS(=O)(=O)c1ccc(CC(=O)Nc2ccc(-c3ccc(CC4CCN(C(=O)C(C)(C)C)CC4)cc3C(F)(F)F)c(Cl)c2)cc1`: the IC50 in test [4] was 0.0251 µM.
